According to patent US6846803B1, “Antagonists specific for the corticotropin-releasing factor receptor type 2 (CRFR2)” (priority 1998, dated 2005):
Marks after values point to notes of the source that are not given here. Residues, ends and D or L forms follow the SMILES beside them.

Columns and labels:
[1] = target: T1, mCRFR2β (Mus musculus, UniProt Q60748); experiment: cAMP stimulation / inhibition of Svg-stimulated cAMP production in HEK-mCRFR2β cells; type: cell-based; settings: for HEK-mCRFR2β cells rel. pot. (relative potency): Table 4, Svg alone = 1.00; for HEK-mCRFR2β cells rel. pot. (relative potency) / mCRFR2β relative in vitro potency: 10 nM antagonist, cAMP production stimulated by 1 nM Svg; for Emax: read-out: HEK-mCRFR2β cells rel. IA (relative intrinsic activity); for mCRFR2β relative in vitro potency: Table 2, Svg alone = 1.00 (lower = stronger inhibition)
T1 construct: expressed in transfected cells; host or cells: HEK 293 cells, stably transfected (HEK-mCRFR2β); membrane homogenates
Protocol: (§1) HEK-rCRFR1 cells or HEK-mCRFR2β cells were incubated with different CRF agonists in the presence or absence of 1 μM or 10 nM antagonist, or CRF antagonist (c=1 μM) alone. After removal of the medium, cells were lyzed with aqueous 6% trichloroacetic acid (5 min, 100° C.) (Rühmann, A., A. K. E. Köpke, F. M. Dautzenberg, and J. Spiess, Proc. Natl. Acad. Sci. USA 93: 10609-10613, 1996). The cell lysates were stored at −70° C. until assayed with a RIA kit (Amersham, Little Chalfont). […] Statistical significance was determined across groups with ANOVA, and significant differences between groups were determined by post hoc comparison using the Dunn test.
(§2) Intrinsic activities were measured at peptide concentrations generating maximal formation of cAMP in HEK-rCRFR1 or HEK-mCRFR2β cells.
Target sequence in this assay (Q60748 1-431 isoform Q60748-2): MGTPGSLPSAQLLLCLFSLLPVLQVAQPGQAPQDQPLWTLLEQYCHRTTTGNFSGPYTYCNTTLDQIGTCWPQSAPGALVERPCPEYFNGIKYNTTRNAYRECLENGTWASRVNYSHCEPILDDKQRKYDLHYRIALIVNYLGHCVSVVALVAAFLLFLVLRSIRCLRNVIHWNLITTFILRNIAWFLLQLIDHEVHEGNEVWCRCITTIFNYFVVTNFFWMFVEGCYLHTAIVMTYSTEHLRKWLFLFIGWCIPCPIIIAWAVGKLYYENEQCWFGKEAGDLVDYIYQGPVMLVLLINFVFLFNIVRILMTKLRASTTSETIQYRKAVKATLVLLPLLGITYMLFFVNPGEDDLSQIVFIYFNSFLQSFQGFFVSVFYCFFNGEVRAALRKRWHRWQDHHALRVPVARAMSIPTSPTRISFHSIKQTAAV

[2] = target: T2, rCRFR1 (Rattus norvegicus, UniProt P35353); experiment: cAMP stimulation / inhibition of oCRF-stimulated cAMP production in HEK-rCRFR1 cells; type: cell-based; settings: for HEK-rCRFR1 cells rel. pot. (relative potency): Table 4, oCRF alone = 1.00; for HEK-rCRFR1 cells rel. pot. (relative potency) / rCRFR1 relative in vitro potency: 1 μM antagonist, cAMP production stimulated by 1 nM oCRF; for Emax: read-out: HEK-rCRFR1 cells rel. IA (relative intrinsic activity); for rCRFR1 relative in vitro potency: Table 2, oCRF alone = 1.00 (lower = stronger inhibition)
T2 construct: expressed in transfected cells; host or cells: HEK 293 cells, stably transfected (HEK-rCRFR1)
T2 sequence (P35353 24-415): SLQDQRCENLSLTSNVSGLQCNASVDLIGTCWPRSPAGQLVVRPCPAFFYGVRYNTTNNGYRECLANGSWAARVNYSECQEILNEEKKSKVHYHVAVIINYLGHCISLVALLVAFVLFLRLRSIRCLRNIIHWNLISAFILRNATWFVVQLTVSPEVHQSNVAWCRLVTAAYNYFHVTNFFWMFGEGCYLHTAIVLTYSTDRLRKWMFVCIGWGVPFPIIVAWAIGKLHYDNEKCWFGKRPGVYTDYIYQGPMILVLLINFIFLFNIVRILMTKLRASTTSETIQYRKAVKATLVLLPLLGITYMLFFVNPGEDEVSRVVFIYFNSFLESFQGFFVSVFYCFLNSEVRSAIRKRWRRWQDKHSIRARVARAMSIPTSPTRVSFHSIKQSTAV
Protocol: as §1, §2

[3] = target: T1, mCRFR2β; experiment: Displacement of [^125I-Tyr^0]Svg from membranes of HEK-mCRFR2β cells; type: binding; settings: for Selectivity: Kd(rCRFR1)(peptide)/Kd(rCRFR1)(astressin) × Kd(mCRFR2β)(astressin)/Kd(mCRFR2β)(peptide)
Protocol: Binding assays were performed in 96-well MultiScreen plates (Millipore, Eschborn, Germany) with GF/B filters (pore size 1.0 μm). […] After incubation (60 min, 23° C.), membrane suspension was aspirated through the plate, followed by two washes with assay buffer (0.2 ml, 23°). Radioactivity of the punched filters was measured with a 1470 WIZARD automatic gamma counter (Berthold, Hannover). […] Statistical analysis was performed with ANOVA, and significant differences between groups were determined by post hoc comparison using the Dunn test.
Membrane homogenates of human embryonic kidney (HEK) 293 cells stably transfected with cDNA coding for rat CRF receptor, type 1 (rCRFR1) or mouse CRF receptor, type 2β (mCRFR2β) were prepared according to standard protocols (see, e.g., Sambrook et al., Molecular Cloning: A Laboratory Manual, 2nd. Edition, Cold Spring Habor Laboratory Press, Cold Spring Habor, N.Y., 1989; Ausubel et al., Current Protocols in Molecular Biology, Green Publishing Associates and Wiley Interscience, NY, 1989).

| Compound | HEK-mCRFR2β cells rel. pot. (relative potency) [1] | Emax [1] | HEK-rCRFR1 cells rel. pot. (relative potency) [2] | Emax [2] | Kd [3] | Selectivity ([3]; Table 3) | mCRFR2β relative in vitro potency [1] | rCRFR1 relative in vitro potency [2] | Selectivity ([3]; Table 1) |
| --- | --- | --- | --- | --- | --- | --- | --- | --- | --- |
| CC[C@H](C)[C@H](NC(=O)[C@@H](NC(=O)[C@H](CC(=O)O)NC(=O)[C@H](CC(C)C)NC(=O)[C@H](CC(C)C)NC(=O)[C@H](CC(C)C)NC(=O)[C@H](CCCNC(=N)N)NC(=O)[C@H](CC(N)=O)NC(=O)[C@H](CC(N)=O)NC(=O)[C@H](C)NC(=O)[C@H](C)NC(=O)[C@H](CCC(N)=O)NC(=O)[C@H](CCC(N)=O)NC(=O)[C@H](CCCCN)NC(=O)[C@H](CCC(=O)O)NC(=O)[C@H](CCCCN)NC(=O)[C@H](CCC(=O)O)NC(=O)[C@H](CCC(N)=O)NC(=O)[C@H](CCCCN)NC(=O)[C@H](CCC(=O)O)NC(=O)[C@@H](NC(=O)[C@H](CCC(=O)O)NC(=O)[C@@H](NC(=O)[C@H](CCSC)NC(=O)[C@H](CCCCN)NC(=O)[C@H](CCCNC(=N)N)NC(=O)[C@H](CC(C)C)NC(=O)[C@H](CC(C)C)NC(=O)[C@H](Cc1c[nH]cn1)NC(=O)[C@@H](N)Cc1ccc(O)cc1)[C@@H](C)CC)[C@@H](C)CC)[C@@H](C)O)C(N)=O [compound 18, [Tyr^11, His^12]Svg(11-40)] (H-YHLLRKMIEIEKQEKEKQQAANNRLLLDTI-NH2; N-terminus assumed) | 0.37 ± 0.05 | 0.8 ± 0.2% | 0.79 ± 0.07 | 3 ± 1% | 4.9 ± 1.8 nM | 31.64 |  |  |  |
| CC[C@H](C)[C@H](NC(=O)[C@@H](NC(=O)[C@H](CC(=O)O)NC(=O)[C@H](CC(C)C)NC(=O)[C@H](CC(C)C)NC(=O)[C@H](CC(C)C)NC(=O)[C@H](CCCNC(=N)N)NC(=O)[C@H](CC(N)=O)NC(=O)[C@H](CC(N)=O)NC(=O)[C@H](C)NC(=O)[C@H](C)NC(=O)[C@H](CCC(N)=O)NC(=O)[C@H](CCC(N)=O)NC(=O)[C@H](CCCCN)NC(=O)[C@H](CCC(=O)O)NC(=O)[C@H](CCCCN)NC(=O)[C@H](CCC(=O)O)NC(=O)[C@H](CCC(N)=O)NC(=O)[C@H](CCCCN)NC(=O)[C@H](CCC(=O)O)NC(=O)[C@@H](NC(=O)[C@H](CCC(=O)O)NC(=O)[C@@H](NC(=O)[C@H](CCSC)NC(=O)[C@H](CCCCN)NC(=O)[C@H](CCCNC(=N)N)NC(=O)[C@H](CC(C)C)NC(=O)[C@H](CC(C)C)NC(=O)[C@H](CCC(=O)O)NC(=O)[C@@H](N)Cc1ccc(O)cc1)[C@@H](C)CC)[C@@H](C)CC)[C@@H](C)O)C(N)=O [compound 19, [Tyr^11]Svg(11-40)] | 0.67 ± 0.04 | 0.7 ± 0.2% | 0.82 ± 0.06 | 9 ± 1% | 20.8 ± 1.6 nM | 32.97 |  |  |  |
| [DLeu^11, Glu^12]rUcn(11-40) [compound 9] |  |  |  |  |  |  | 0.81 ± 0.06 | 0.56 ± 0.05 | 2.29 |
| [DPhe^11, Glu^12]rUcn(11-40) [compound 8] |  |  |  |  |  |  | 0.61 ± 0.02 | 0.42 ± 0.11 | 5.04 |
| [DPhe^11]rUcn(11-40) [compound 7] |  |  |  |  |  |  | 0.57 ± 0.06 | 0.18 ± 0.03^g | 4.45 |
| [DPhe^12, Nle^21,38]h/rCRF(12-41) [compound 5, reference compound] |  |  |  |  |  |  | 0.87 ± 0.08^i | 0.33 ± 0.08^h,i | 1.84 |
| [DPhe^12]oCRF(12-41) [compound 6] |  |  |  |  |  |  | 0.92 ± 0.07^k | 0.89 ± 0.07 | 1.32 |
| cyclo(29-32)[DPhe^11, Glu^29, Lys^32]rUcn(11-40) [compound 10] |  |  |  |  |  |  | 0.89 ± 0.01 | 0.78 ± 0.10 | 1.48 |
| α-helical CRF(9-41) [compound 4, reference compound] |  |  |  |  |  |  | 0.67 ± 0.02 | 0.58 ± 0.05 | 6.61 |
